Experimental data: US20230322761A1, “DEGRADATION OF BRUTON'S TYROSINE KINASE (BTK) BY CONJUGATION OF BTK INHIBITORS WITH E3 LIGASE LIGAND AND METHODS OF USE” (BEIGENE, LTD., priority 2020, published 2023)

What follows are compounds tested against T1, BTK (Homo sapiens, UniProt Q06187) (assay: BTK degradation in TMD-8 cells, HTRF assay after 6 h treatment). Details: IC50 (DC50) of BTK degradation.
T1 construct: endogenous in cells; host or cells: TMD-8 cells
Assay type: cell-based
In short: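 Remaining BTK was quantified by HTRF in lysates of TMD-8 cells after 6 h exposure to an 8-point, 6-fold compound series (500× stocks in DMSO starting at 1 mM; 0.2% DMSO). Lysis 30 min, antibodies overnight at room temperature, ratio read at 665/620 nm; DC50 fitted with a four-parameter logistic equation.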

T1 sequence (Q06187 whole entry): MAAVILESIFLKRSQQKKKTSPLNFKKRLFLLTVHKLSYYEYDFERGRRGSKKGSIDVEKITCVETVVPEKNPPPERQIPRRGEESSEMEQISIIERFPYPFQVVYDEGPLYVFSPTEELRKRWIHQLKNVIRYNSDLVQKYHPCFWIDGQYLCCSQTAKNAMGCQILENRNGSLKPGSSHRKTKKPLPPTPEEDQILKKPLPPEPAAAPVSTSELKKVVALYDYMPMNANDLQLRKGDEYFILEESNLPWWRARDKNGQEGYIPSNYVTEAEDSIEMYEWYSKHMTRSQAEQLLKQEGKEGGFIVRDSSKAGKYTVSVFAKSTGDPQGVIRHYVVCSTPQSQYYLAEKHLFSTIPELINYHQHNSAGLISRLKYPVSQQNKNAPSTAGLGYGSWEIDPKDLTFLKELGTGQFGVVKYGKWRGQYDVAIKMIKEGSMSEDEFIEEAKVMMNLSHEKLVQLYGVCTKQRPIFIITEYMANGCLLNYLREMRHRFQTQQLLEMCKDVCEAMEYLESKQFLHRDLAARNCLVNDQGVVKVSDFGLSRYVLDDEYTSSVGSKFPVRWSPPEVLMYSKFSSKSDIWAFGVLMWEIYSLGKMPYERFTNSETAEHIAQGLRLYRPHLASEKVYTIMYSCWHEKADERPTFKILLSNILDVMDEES

Row | SMILES | DC50
1 | Cc1cc(-c2n[nH]c3ncc(-c4ccc(N5CCN(CCc6ccc(C7CCC(=O)NC7=O)cc6)CC5)cc4)cc23)ccc1CNC(=O)c1cn(C(C)(C)C)nn1 (stereo not shown) [Example 108, 1-(tert-butyl)-N-(4-(5-(4-(4-(4-(2,6-dioxopiperidin-3-yl)phenethyl)piperazin-1-yl)phenyl)-1H-pyrazolo[3,4-b]pyridin-3-yl)-2-methylbenzyl)-1H-1,2,3-triazole-4-carboxamide] | 4.13 nM
2 | Cc1cc(-c2n[nH]c3ncc(-c4ccc(N5CCN(CC6CCN(c7ccc(N8CCC(=O)NC8=O)cc7)CC6)CC5)cc4)cc23)ccc1[C@@H](C)NC(=O)c1noc(C2(C)CC2)n1 [Example 109, (R)—N-(1-(4-(5-(4-(4-((1-(4-(2,4-dioxotetrahydropyrimidin-1(2H)-yl)phenyl)piperidin-4-yl)methyl)piperazin-1-yl)phenyl)-1H-pyrazolo[3,4-b]pyridin-3-yl)-2-methylphenyl)ethyl)-5-(1-methylcyclopropyl)-1,2,4-oxadiazole-3-carboxamide] | 13.3 nM
3 | Cc1cc(-c2n[nH]c3ncc(-c4ccc(N5CCN(CC6CCN(c7ccc(N8CCC(=O)NC8=O)c(Cl)c7)CC6)CC5)cc4)cc23)ccc1[C@@H](C)NC(=O)c1noc(C(C)(C)C)n1 [Example 115, (R)-5-(tert-butyl)-N-(1-(4-(5-(4-(4-((1-(3-chloro-4-(2,4-dioxotetrahydropyrimidin-1(2H)-yl)phenyl)piperidin-4-yl)methyl)piperazin-1-yl)phenyl)-1H-pyrazolo[3,4-b]pyridin-3-yl)-2-methylphenyl)ethyl)-1,2,4-oxadiazole-3-carboxamide] | 4.87 nM
4 | Cc1cc(-c2n[nH]c3ncc(-c4ccc(C5CCN(CCc6ccc(C7CCC(=O)NC7=O)cc6)CC5)nc4)cc23)ccc1[C@@H](C)NC(=O)c1noc(C(C)(C)C)n1 (stereo partly drawn) [Example 117, 5-(tert-butyl)-N-((1R)-1-(4-(5-(6-(1-(4-(2,6-dioxopiperidin-3-yl)phenethyl)piperidin-4-yl)pyridin-3-yl)-1H-pyrazolo[3,4-b]pyridin-3-yl)-2-methylphenyl)ethyl)-1,2,4-oxadiazole-3-carboxamide] | 3.5 nM
5 | COc1cc(OCCCN2CCN(c3ccc(-c4cnc5[nH]nc(-c6ccc([C@@H](C)NC(=O)c7nc(C(C)(C)C)no7)c(C)c6)c5c4)cc3)CC2)ccc1N1CCC(=O)NC1=O [Example 118, (R)-3-(tert-butyl)-N-(1-(4-(5-(4-(4-(3-(4-(2,4-dioxotetrahydropyrimidin-1(2H)-yl)-3-methoxyphenoxy)propyl)piperazin-1-yl)phenyl)-1H-pyrazolo[3,4-b]pyridin-3-yl)-2-methylphenyl)ethyl)-1,2,4-oxadiazole-5-carboxamide] | 8.07 nM
6 | Cc1cc(-c2n[nH]c3ncc(-c4ccc(N5CCN(CCc6ccc(N7CCC(=O)NC7=O)c(C)c6)CC5)cc4)cc23)ccc1[C@@H](C)NC(=O)c1noc(C(C)(C)C)n1 [Example 119, (R)-5-(tert-butyl)-N-(1-(4-(5-(4-(4-(4-(2,4-dioxotetrahydropyrimidin-1(2H)-yl)-3-methylphenethyl)piperazin-1-yl)phenyl)-1H-pyrazolo[3,4-b]pyridin-3-yl)-2-methylphenyl)ethyl)-1,2,4-oxadiazole-3-carboxamide] | 2.12 nM
7 | COc1cc(-c2cnc3[nH]nc(-c4ccc([C@@H](C)NC(=O)c5noc(C(C)(C)C)n5)c(C)c4)c3c2)ccc1N1CCN(CC2CCN(c3ccc(N4CCC(=O)NC4=O)cc3)CC2)CC1 [Example 120, (R)-5-(tert-butyl)-N-(1-(4-(5-(4-(4-((1-(4-(2,4-dioxotetrahydropyrimidin-1(2H)-yl)phenyl)piperidin-4-yl)methyl)piperazin-1-yl)-3-methoxyphenyl)-1H-pyrazolo[3,4-b]pyridin-3-yl)-2-methylphenyl)ethyl)-1,2,4-oxadiazole-3-carboxamide] | 5.82 nM
8 | CC(C)(C)c1nc(C(=O)NCc2ccc(-c3n[nH]c4ncc(-c5ccc(N6CCN(CC7CCN(c8ccc(N9CCC(=O)NC9=O)cc8)CC7)CC6)cc5)cc34)cc2CO)no1 [Example 121, 5-(tert-butyl)-N-(4-(5-(4-(4-((1-(4-(2,4-dioxotetrahydropyrimidin-1(2H)-yl)phenyl)piperidin-4-yl)methyl)piperazin-1-yl)phenyl)-1H-pyrazolo[3,4-b]pyridin-3-yl)-2-(hydroxymethyl)benzyl)-1,2,4-oxadiazole-3-carboxamide] | 2.39 nM
9 | Cc1cc(-c2n[nH]c3ncc(-c4ccc(N5CCN(CCc6ccc(N7CCC(=O)NC7=O)cc6)CC5)cn4)cc23)ccc1[C@@H](C)NC(=O)c1noc(C(C)(C)C)n1 [Example 122, (R)-5-(tert-butyl)-N-(1-(4-(5-(5-(4-(4-(2,4-dioxotetrahydropyrimidin-1(2H)-yl)phenethyl)piperazin-1-yl)pyridin-2-yl)-1H-pyrazolo[3,4-b]pyridin-3-yl)-2-methylphenyl)ethyl)-1,2,4-oxadiazole-3-carboxamide] | 2.22 nM
10 | Cc1cc(-c2n[nH]c3ncc(-c4ccc(N5CCN(CC6CCN(c7ccc(N8CCC(=O)NC8=O)cn7)CC6)CC5)cc4)cc23)ccc1[C@@H](C)NC(=O)c1noc(C(C)(C)C)n1 [Example 124, (R)-5-(tert-butyl)-N-(1-(4-(5-(4-(4-((1-(5-(2,4-dioxotetrahydropyrimidin-1(2H)-yl)pyridin-2-yl)piperidin-4-yl)methyl)piperazin-1-yl)phenyl)-1H-pyrazolo[3,4-b]pyridin-3-yl)-2-methylphenyl)ethyl)-1,2,4-oxadiazole-3-carboxamide] | 1.42 nM
11 | Cc1cc(-c2n[nH]c3ncc(-c4ccc(N5CCN(CCc6ccc(C7CCC(=O)NC7=O)cc6)CC5)cc4)cc23)ccc1[C@@H](C)NC(=O)c1cn(C(C)(C)C)nn1 (stereo partly drawn) [Example 125, 1-(tert-butyl)-N-((1R)-1-(4-(5-(4-(4-(4-(2,6-dioxopiperidin-3-yl)phenethyl)piperazin-1-yl)phenyl)-1H-pyrazolo[3,4-b]pyridin-3-yl)-2-methylphenyl)ethyl)-1H-1,2,3-triazole-4-carboxamide] | 15.2 nM
12 | Cc1cc(-c2n[nH]c3ncc(-c4ccc(N5CC6CC5CN6CC5CCN(c6ccc(N7CCC(=O)NC7=O)cc6)CC5)cn4)cc23)ccc1[C@@H](C)NC(=O)c1noc(C(C)(C)C)n1 (stereo partly drawn) [Example 127, 5-(tert-butyl)-N-((1R)-1-(4-(5-(5-(5-((1-(4-(2,4-dioxotetrahydropyrimidin-1(2H)-yl)phenyl)piperidin-4-yl)methyl)-2,5-diazabicyclo[2.2.1]heptan-2-yl)pyridin-2-yl)-1H-pyrazolo[3,4-b]pyridin-3-yl)-2-methylphenyl)ethyl)-1,2,4-oxadiazole-3-carboxamide] | 6.79 nM
13 | Cc1cc(-c2n[nH]c3ncc(-c4ccc(CCN5CCN(c6ccc(N7CCC(=O)NC7=O)cc6)CC5)cc4)cc23)ccc1[C@@H](C)NC(=O)c1noc(C(C)(C)C)n1 [Example 128, (R)-5-(tert-butyl)-N-(1-(4-(5-(4-(2-(4-(4-(2,4-dioxotetrahydropyrimidin-1(2H)-yl)phenyl)piperazin-1-yl)ethyl)phenyl)-1H-pyrazolo[3,4-b]pyridin-3-yl)-2-methylphenyl)ethyl)-1,2,4-oxadiazole-3-carboxamide] | 5.84 nM

Now from value to compound:

Row | DC50 | SMILES
14 | 4.93 nM | Cc1cc(-c2n[nH]c3ncc(-c4ccc(N5CCN(CCc6ccc([C@H]7CCC(=O)NC7=O)cc6)CC5)cc4)cc23)ccc1[C@@H](C)NC(=O)c1noc(C(C)(C)C)n1 [Example 111, 5-(tert-butyl)-N—((R)-1-(4-(5-(4-(4-(4-((R)-2,6-dioxopiperidin-3-yl)phenethyl)piperazin-1-yl)phenyl)-1H-pyrazolo[3,4-b]pyridin-3-yl)-2-methylphenyl)ethyl)-1,2,4-oxadiazole-3-carboxamide]
15 | 1.79 nM | Cc1cc(-c2n[nH]c3ncc(-c4ccc(N5CCN(CCc6ccc([C@@H]7CCC(=O)NC7=O)cc6)CC5)cc4)cc23)ccc1[C@@H](C)NC(=O)c1noc(C(C)(C)C)n1 [Example 112, 5-(tert-butyl)-N—((R)-1-(4-(5-(4-(4-(4-((S)-2,6-dioxopiperidin-3-yl)phenethyl)piperazin-1-yl)phenyl)-1H-pyrazolo[3,4-b]pyridin-3-yl)-2-methylphenyl)ethyl)-1,2,4-oxadiazole-3-carboxamide]
16 | 17 nM | Cc1cc(-c2n[nH]c3ncc(-c4ccc(N5CCN(CCc6ccc([C@H]7CCC(=O)NC7=O)c(F)c6)CC5)cc4)cc23)ccc1[C@@H](C)NC(=O)c1noc(C(C)(C)C)n1 [Example 113, 5-(tert-butyl)-N—((R)-1-(4-(5-(4-(4-(4-((R)-2,6-dioxopiperidin-3-yl)-3-fluorophenethyl)piperazin-1-yl)phenyl)-1H-pyrazolo[3,4-b]pyridin-3-yl)-2-methylphenyl)ethyl)-1,2,4-oxadiazole-3-carboxamide]
17 | 1.56 nM | Cc1cc(-c2n[nH]c3ncc(-c4ccc(N5CCN(CCc6ccc([C@@H]7CCC(=O)NC7=O)c(F)c6)CC5)cc4)cc23)ccc1[C@@H](C)NC(=O)c1noc(C(C)(C)C)n1 [Example 114, 5-(tert-butyl)-N—((R)-1-(4-(5-(4-(4-(4-((S)-2,6-dioxopiperidin-3-yl)-3-fluorophenethyl)piperazin-1-yl)phenyl)-1H-pyrazolo[3,4-b]pyridin-3-yl)-2-methylphenyl)ethyl)-1,2,4-oxadiazole-3-carboxamide]
18 | 1.05 nM | Cc1cc(-c2n[nH]c3ncc(-c4ccc(N5CCN(CCc6ccc(C7CCC(=O)NC7=O)cc6)CC5)cn4)cc23)ccc1[C@@H](C)NC(=O)c1noc(C(C)(C)C)n1 (stereo partly drawn) [Example 116, 5-(tert-butyl)-N-((1R)-1-(4-(5-(5-(4-(4-(2,6-dioxopiperidin-3-yl)phenethyl)piperazin-1-yl)pyridin-2-yl)-1H-pyrazolo[3,4-b]pyridin-3-yl)-2-methylphenyl)ethyl)-1,2,4-oxadiazole-3-carboxamide]
19 | 14.2 nM | Cc1cc(-c2n[nH]c3ncc(-c4ccc(N5CCN(CCc6ccc(OC7CCC(=O)NC7=O)cc6)CC5)cc4)cc23)ccc1[C@@H](C)NC(=O)c1noc(C(C)(C)C)n1 (stereo partly drawn) [Example 123, 5-(tert-butyl)-N-((1R)-1-(4-(5-(4-(4-(4-((2,6-dioxopiperidin-3-yl)oxy)phenethyl)piperazin-1-yl)phenyl)-1H-pyrazolo[3,4-b]pyridin-3-yl)-2-methylphenyl)ethyl)-1,2,4-oxadiazole-3-carboxamide]
